Patent US10214542B2, “Modified macrocyclic compounds” (BAYER PHARMA AKTIENGESELLSCHAFT, priority 2015, dated 2019)
Where two headings read alike, the source gives them in different places.

Columns and labels:
HeLa cells = assay: Proliferation assay, crystal violet (Method 3); format: cell-based, human; settings: Homo sapiens, 96 h, 4 days, read-out: Inhibition of HeLa cell proliferation IC50
Experimental: (§1) Cultivated tumour cells (HeLa, human cervical tumour cells, ATCC CCL-2; NCI-H460, human non-small cell lung carcinoma cells, ATCC HTB-177; DU 145, hormone-independent human prostate carcinoma cells, ATCC HTB-81; HeLa-MaTu-ADR, multidrug-resistant human cervical carcinoma cells, EPO-GmbH Berlin; Caco-2, human colorectal carcinoma cells, ATCC HTB-37; B16F10, mouse melanoma cells, ATCC CRL-6475) were plated at a density of 5,000 cells/well (DU145, HeLa-MaTu-ADR), 3,000 cells/well (NCI-H460, HeLa), 1,500 cells/well (Caco-2), or 1,000 cells/well (B16F10) in a 96-well multititer plate in 200 μL of their respective growth medium supplemented 10% fetal calf serum. After 24 hours, the cells of one plate (zero-point plate) were stained with crystal violet (see below), while the medium of the other plates was supplemented with the test substances in various concentrations (0 μM, as well as in the range of 0.0001-10 μM; the final concentration of the solvent dimethyl sulfoxide was adjusted to 0.1%) using a Hewlett-Packard HP D300 Digital Dispenser. The cells were incubated for 4 days in the presence of test substances. Cell proliferation was determined by staining the cells with crystal violet: the cells were fixed by adding 20 μl/measuring point of an 11% glutaric aldehyde solution for 15 minutes at room temperature. After three washing cycles of the fixed cells with water, the plates were dried at room temperature. The cells were stained by adding 100 μl/measuring point of a 0.1% crystal violet solution (pH 3.0). After three washing cycles of the stained cells with water, the plates were dried at room temperature. The dye was dissolved by adding 100 μl/measuring point of a 10% acetic acid solution. The extinction was determined by photometry at a wavelength of 595 nm. The change of cell number, in percent, was calculated by normalization of the measured values to the extinction values of the zero-point plate (=0%) and the extinction of the untreated (0 μm) cells (=100%). The IC50 values (inhibitory concentration at 50% of maximal effect) were determined by means of a 4 parameter fit.

A2780 cells = assay: Proliferation assay, Cell Titre-Glo viability (Method 3); format: cell-based, human; settings: A2780, 72-hour exposure, read-out: Inhibition of A2780 cell proliferation IC50
Experimental: (§2) A2780 human ovarian carcinoma cells (ECACC #93112519) and non-adherent MOLM-13 human acute myeloid leukemia cells (DSMZ ACC 554) were seeded at a density of 3,000 cell/well (A2780) or 5,000 cells/well (MOLM-13) in a 96-well multititer plate in 150 μL of growth medium supplemented 10% fetal calf serum. After 24 hours, cell viability of one plate (zero-point plate) was determined with the Cell Titre-Glo Luminescent Cell Viability Assay (Promega), while the medium of the other plates was supplemented with the test substances in various concentrations (0 μM, as well as in the range of 0.0001-10 μM; the final concentration of the solvent dimethyl sulfoxide was adjusted to 0.1%) using a Hewlett-Packard HP D300 Digital Dispenser. Cell viability was assessed after 72-hour exposure with the Cell
(§3) Titre-Glo Luminescent Cell Viability Assay (Promega). IC50 values (inhibitory concentration at 50% of maximal effect) were determined by means of a 4 parameter fit on measurement data which were normalized to vehicle (DMSO) treated cells (=100%) and measurement readings taken immediately before compound exposure (=0%).

MOLM-13 cells = assay: as above; format: cell-based; settings: Homo sapiens; MOLM-13, 72-hour exposure; read-out: Inhibition of MOLM-13 cell proliferation IC50
Experimental: as §2, §3

NCI-H460 cells = assay: Proliferation assay, crystal violet (Method 3); format: cell-based; settings: Homo sapiens, 96 h; NCI-H460, 4 days; read-out: Inhibition of NCI-H460 cell proliferation IC50
Experimental: as §1

DU145 cells = assay: Proliferation assay, crystal violet (Method 3); format: cell-based; settings: Homo sapiens, DU-145, 96 h; DU145, 4 days; read-out: Inhibition of DU145 cell proliferation IC50
Experimental: as §1

B16F10 cells = assay: Proliferation assay, crystal violet (Method 3); format: cell-based; settings: Mus musculus, B16-F10, 96 h; B16F10, 4 days; read-out: Inhibition of B16F10 cell proliferation IC50
Experimental: as §1

HeLa-MaTu-ADR cells = assay: Proliferation assay, crystal violet (Method 3); format: cell-based; settings: Homo sapiens, 96 h, 4 days, read-out: Inhibition of HeLa-MaTu-ADR cell proliferation IC50
Experimental: as §1

Caco-2 cells = assay: Proliferation assay, crystal violet (Method 3); format: cell-based; settings: Homo sapiens, 96 h; Caco-2, 4 days; read-out: Inhibition of Caco-2 cell proliferation IC50
Experimental: as §1

SMILES | IC50 (HeLa cells) [nM] | IC50 (A2780 cells; Homo sapiens, A2780, 72 h) [nM] | IC50 (MOLM-13 cells) [nM] | IC50 (NCI-H460 cells) [nM] | IC50 (DU145 cells) [nM] | IC50 (B16F10 cells) [nM] | IC50 (HeLa-MaTu-ADR cells) [nM] | IC50 (Caco-2 cells) [nM] | IC50 (A2780 cells) [nM]
C[S+]([O-])Cc1cc2nc(c1)OCCCCCc1cc(F)ccc1-c1cc(ncc1F)N2 (racemic) [Example 19, (rac)-2,19-difluoro-9-[(methylsulfinyl)methyl]-14,15,16,17-tetrahydro-6H,13H-7,11-(azeno)-5,1-(metheno)-12,4,6-benzoxadiazacyclononadecine] | 1000 | > 100 | 231 | 1150 | 942 | 1550 | 888 | 944 | –
CS(=N)(=O)Cc1cc2nc(c1)OCCCCCc1cc(F)ccc1-c1cc(ncc1F)N2 (racemic) [Example 20, (rac)-2,19-difluoro-9-[(S-methylsulfonimidoyl)methyl]-14,15,16,17-tetrahydro-6H,13H-7,11-(azeno)-5,1-(metheno)-12,4,6-benzoxadiazacyclononadecine] | 408 | > 100 | 79 | 579 | 347 | 867 | 360 | 350 | 161
CC(C)(C)OC(=O)N=S(C)(=O)Cc1cc2cc(c1)OCCCCSc1cc(F)ccc1-c1nc(ncc1F)N2 (racemic) [Example 21, (rac)-tert-butyl[{[16,20-difluoro-2,3,4,5-tetrahydro-12H-17,13-(azeno)-11,7-(metheno)-6,1,12,14-benzoxathiadiazacyclononadecin-9-yl]methyl}(methyl)oxido-λ^6-sulfanylidene]carbamate] | 327 | > 100 | 162 | 476 | 327 | 543 | 334 | 243 | –
CS(=N)(=O)Cc1cc2cc(c1)OCCCCSc1cc(F)ccc1-c1nc(ncc1F)N2 (racemic) [Example 22, (rac)-16,20-difluoro-9-[(S-methylsulfonimidoyl)methyl]-2,3,4,5-tetrahydro-12H-17,13-(azeno)-11,7-(metheno)-6,1,12,14-benzoxathiadiazacyclononadecine] | 102 | 45 | 23 | 115 | 36 | 110 | 105 | 74 | –
CSCc1cc2nc(c1F)N(C)CCCCOc1cc(F)ccc1-c1cc(ncc1F)N2 [Example 12, 8,16,20-trifluoro-6-methyl-9-[(methylsulfanyl)methyl]-3,4,5,6-tetrahydro-2H,12H-11,7-(azeno)-13,17-(metheno)-1,6,12,14-benzoxatriazacyclononadecine] | 851 | > 100 | 100 | 588 | 852 | 991 | 872 | 441 | –

The next compounds have a lower IC50 (HeLa cells) than those just listed; values first:

IC50 (HeLa cells) [nM] | IC50 (A2780 cells; Homo sapiens, A2780, 72 h) [nM] | IC50 (MOLM-13 cells) [nM] | IC50 (NCI-H460 cells) [nM] | IC50 (DU145 cells) [nM] | IC50 (B16F10 cells) [nM] | IC50 (HeLa-MaTu-ADR cells) [nM] | IC50 (Caco-2 cells) [nM] | IC50 (A2780 cells) [nM] | SMILES
33 | 31 | 18 | 64 | 40 | 83 | 63 | 48 | – | CC(C)(C)OC(=O)N=S(C)(=O)Cc1cc2cc(c1)OCCCCNc1cc(F)ccc1-c1nc(ncc1F)N2 (racemic) [Example 15, (rac)-tert-butyl[{[16,20-difluoro-2,3,4,5-tetrahydro-1H,12H-13,17-(azeno)-11,7-(metheno)-6,1,12,14-benzoxatriazacyclononadecin-9-yl]methyl}(methyl)oxido-λ^6-sulfanylidene]carbamate]
31 | 6.5 | 13 | 35 | 30 | 38 | 30 | 24 | – | CN1CCCCNc2cc(F)ccc2-c2nc(ncc2F)Nc2cc(CS(C)(=N)=O)cc1c2.O=CO (racemic) [Example 17, (rac)-16,20-difluoro-6-methyl-9-[(S-methylsulfonimidoyl)methyl]-1,2,3,4,5,6-hexahydro-12H-17,13-(azeno)-11,7-(metheno)-1,6,12,14-benzotetraazacyclononadecine; salt with formic acid]
28 | 9 | 8 | 31 | 30 | 51 | 28 | 36 | – | CSCc1cc2nc(c1)Nc1cc(c(F)cn1)-c1ccc(F)cc1OCCCN2 [Example 1, 15,19-Difluoro-8-[(methylsulfanyl)methyl]-2,3,4,5-tetrahydro-11H-10,6-(azeno)-12,16-(metheno)-1,5,11,13-benzoxatriazacyclooctadecine]
10 | 8.2 | 4.1 | 20 | 12 | 18 | 13 | 12 | – | CS(=N)(=O)Cc1cc2cc(c1)OCCCCNc1cc(F)ccc1-c1nc(ncc1F)N2 (racemic) [Example 16, (rac)-16,20-difluoro-9-[(S-methylsulfonimidoyl)methyl]-2,3,4,5-tetrahydro-1H-17,13-(azeno)-7,11-(metheno)-6,1,12,14-benzoxatriazacyclononadecine]
